Test results published in US20030166645A1, “Novel nitrofuran-containing heterocyclic compounds and uses thereof” (priority 2001, published 2003).
Converted amounts (≈) assume the structure as drawn. Read-outs that look alike come from different tables or passages of the source.

How the values were obtained:
[1] = tested on: Bacteroides vulgatus; assay: Antimicrobial agar dilution test of anaerobic bacteria (MIC); format: cell-based; conditions: 48 h
[2] = tested on: Bacteroides thetaiotaomicron; format: cell-based; conditions: agar dilution, anaerobic, 48 h
[3] = tested on: Bacteroides fragilis; assay: Antimicrobial agar dilution test of anaerobic bacteria (MIC); format: cell-based; conditions: 48 h
[4] = tested on: S cerevisiae; assay: Microdilution antimicrobial susceptibility test (MIC); format: cell-based; conditions: broth microdilution, 18-24 h, MIC = 90% inhibition of growth; for MIC: read-out: MIC S cerevisiae MIC7
[5] = tested on: M. catarrhalis; assay: as above; format: cell-based; conditions: broth microdilution, 18-24 h, MIC = 90% inhibition of growth; for MIC: Moraxella catarrhalis, read-out: MIC M. catarrhalis MIC2
[6] = tested on: P aeruginosa; assay: as above; format: cell-based; conditions: broth microdilution, 18-24 h, MIC = 90% inhibition of growth
[7] = tested on: S aureus; assay: as above; format: cell-based; conditions: broth microdilution, 18-24 h, MIC = 90% inhibition of growth; for MIC: read-out: MIC S aureus MIC2
[8] = tested on: E. coli; assay: Systemic bacterial infection model, mice infected with E. coli
[9] = tested on: S pneumoniae; assay: Microdilution antimicrobial susceptibility test (MIC); format: cell-based; conditions: broth microdilution, 18-24 h, CO2-enriched atmosphere, MIC = 90% inhibition of growth; for MIC: read-out: MIC S pneumoniae MIC6
[10] = tested on: H influenzae; assay: as above; format: cell-based; conditions: broth microdilution, 18-24 h, MIC = 90% inhibition of growth; for MIC: read-out: MIC H influenzae MIC4
[11] = tested on: E coli; assay: as above; format: cell-based; conditions: broth microdilution, 18-24 h, MIC = 90% inhibition of growth; for MIC: read-out: MIC E coli MIC2
[12] = tested on: E faecalis; assay: as above; format: cell-based; conditions: broth microdilution, 18-24 h, MIC = 90% inhibition of growth; for MIC: read-out: MIC E faecalis MIC2
[13] = tested on: E coli (ImpA); assay: as above; format: cell-based; conditions: broth microdilution, 18-24 h, MIC = 90% inhibition of growth; for MIC: read-out: MIC E coli (ImpA) MIC9
Description: Microdilution Antimicrobial Susceptibility Test Assay
Stock solutions of tested compounds were prepared in N,N-dimethylformamide (DMF) at a concentration of 5 mg/mL. Working solutions of the tested compounds were then prepared from the stock solutions, in Mueller-Hinton broth (MHB) with a starting concentration of 64 μg/mL.
Bacterial inocula were prepared from overnight culture (i.e., one fresh colony from agar plate in 5 ml MHB; H. influenzae was grown in MHB with the addition of yeast extract, haematin, and NAD), centrifuged 2×5 min/3000 rpm (for S. pneumoniae and H. influenzae, 2×10 min/3000 rpm), and dispensed in 5 ml of fresh MHB each time, such that the bacterial suspension is diluted to obtain 100 colony forming units (cfu) in a microplate well (100 μl total volume).
Microplate wells were filled with two-fold dilutions of test compound (50 Al), starting with 64 μg/ml. Wells were then filled with 50 μl of bacterial inoculum (final volume: 100 μl/well). The plates were incubated at 37° C. for 18-24 hours (S. pneumoniae was grown in a CO2-enriched atmosphere).

[14] = tested on: Clostridium perfringens; format: cell-based; conditions: disk 200 μg, anaerobic, 24-48 h
[15] = tested on: Bacteroides fragilis; format: cell-based; conditions: Bacteroides fragilis; disk 200 μg; anaerobic, 24-48 h
[16] = tested on: Peptostreptococcus sp; format: cell-based; conditions: Peptostreptococcus sp (fresh abdominal aspirate); disk 200 μg; anaerobic, 24-48 h
[17] = tested on: S. aureus; assay: Systemic bacterial infection model, mice infected with S. aureus
[18] = tested on: Clostridium sp.; format: cell-based; conditions: disk 200 μg, anaerobic, 24-48 h

Q: With `CC[C@H]1OC(=O)[C@H](C)[C@@H](O[C@H]2C[C@@](C)(OC)[C@@H](O)[C@H](C)O2)[C@H](C)[C@@H](O[C@@H]2O[C@H](C)C[C@H](N(C)C)[C@H]2O)[C@](C)(O)C[C@@H](C)CN(C)[C@H](C)[C@@H](O)[C@]1(C)O` [Azithromycin] as the compound, how does the MIC Bacteroides vulgatus [1] read?
A: Its MIC Bacteroides vulgatus is 1 µg/mL (≈ 1.34 µM).

Q: What about the MIC Bacteroides thetaiotaomicron [2] of the same compound?
A: The MIC Bacteroides thetaiotaomicron was 4 µg/mL (≈ 5.34 µM).

Q: What about the MIC Bacteroides fragilis ([3]; first B. fragilis column) of the same compound?
A: The MIC Bacteroides fragilis was 4 µg/mL (≈ 5.34 µM).

Q: And the MIC Bacteroides fragilis ([3]; second B. fragilis column)?
A: The MIC Bacteroides fragilis was 4 µg/mL (≈ 5.34 µM).

Q: What about the MIC Bacteroides fragilis ([3]; third B. fragilis column) of the same compound?
A: Its MIC Bacteroides fragilis is 4 µg/mL (≈ 5.34 µM).

Q: For `O=C(N[C@H](CO)[C@H](O)c1ccc([N+](=O)[O-])cc1)C(Cl)Cl` [Chloramphenicol], which MIC Bacteroides vulgatus [1] is on record?
A: Its MIC Bacteroides vulgatus is < 0.125 µg/mL.

Q: And the MIC Bacteroides thetaiotaomicron [2]?
A: The MIC Bacteroides thetaiotaomicron was 4 µg/mL (≈ 12.4 µM).

Q: And the MIC Bacteroides fragilis ([3]; first B. fragilis column)?
A: Its MIC Bacteroides fragilis is 4 µg/mL (≈ 12.4 µM).

Q: And the MIC Bacteroides fragilis ([3]; second B. fragilis column)?
A: The MIC Bacteroides fragilis was 4 µg/mL (≈ 12.4 µM).

Q: What about the MIC Bacteroides fragilis ([3]; third B. fragilis column) of the same compound?
A: The MIC Bacteroides fragilis was 4 µg/mL (≈ 12.4 µM).

Q: For `CCC[C@@H]1C[C@@H](C(=O)N[C@@H]([C@H]2O[C@H](SC)[C@H](O)[C@@H](O)[C@H]2O)[C@H](C)Cl)N(C)C1` [Clindamycin], which MIC Bacteroides vulgatus [1] is on record?
A: The MIC Bacteroides vulgatus was < 0.125 µg/mL.

Q: What about the MIC Bacteroides fragilis ([3]; first B. fragilis column) of the same compound?
A: The MIC Bacteroides fragilis was 1 µg/mL (≈ 2.35 µM).

Q: And the MIC Bacteroides fragilis ([3]; second B. fragilis column)?
A: Its MIC Bacteroides fragilis is 1 µg/mL (≈ 2.35 µM).

Q: And the MIC Bacteroides fragilis ([3]; third B. fragilis column)?
A: The MIC Bacteroides fragilis was 1 µg/mL (≈ 2.35 µM).

Q: What does the source list for `Cn1c(-c2ccc([N+](=O)[O-])o2)nnc1S(=O)(=O)O` [Compound 107, 5-[2-(5-Nitro)furyl]-4-methyl-4H-1,2,4-triazole-3-sulfonic Acid]?
A: MIC [4]: 64 µg/mL (≈ 233 µM); MIC [5]: 1 µg/mL (≈ 3.65 µM); MIC ([6]; read-out: MIC P aeruginosa MIC2): > 64 µg/mL; MIC [7]: 16 µg/mL (≈ 58.3 µM); Survival (%) ([8]; Study #4, 50 mg/kg IP QD × 3, 6 days observation): 70%; Survival (%) ([8]; Study #4, 75 mg/kg IP QD × 3, 6 days observation): 90%; MIC [9]: 32 µg/mL (≈ 117 µM); MIC [10]: 16 µg/mL (≈ 58.3 µM); MIC [11]: 2 µg/mL (≈ 7.29 µM); MIC [12]: > 64 µg/mL; MIC [13]: 4 µg/mL (≈ 14.6 µM)

Q: With `Cn1c(S)nnc1-c1ccc([N+](=O)[O-])o1` [Compound 122, 5-[2-(5-Nitro)furyl]-4-methyl-4H-1,2,4-triazole-3-thiol] as the compound, how does the Inhibition zones ([14]; Clostridium perfringens (fresh wound isolate)) read?
A: The Inhibition zones was 30 mm.

Q: What about the Inhibition zones ([14]; Clostridium perfringens, diameter includes disk) of the same compound?
A: The Inhibition zones was 36 mm*.

Q: What about the MIC [4] of the same compound?
A: Its MIC is 32 µg/mL (≈ 141 µM).

Q: What about the MIC [5] of the same compound?
A: Its MIC is < 0.12 µg/mL.

Q: What about the Inhibition zones [15] of the same compound?
A: The Inhibition zones was 41 mm.

Q: And the MIC [7]?
A: The MIC was 2 µg/mL (≈ 8.84 µM).

Q: What about the MIC Bacteroides vulgatus [1] of the same compound?
A: The MIC Bacteroides vulgatus was < 0.125 µg/mL.

Q: What about the “Survival (%)” value ([8]; Study #3, 25 mg/kg IP QD × 3, 6 days observation) of the same compound?
A: The value was 0%.

Q: What about the “Survival (%)” value ([8]; Study #3, 50 mg/kg IP QD × 3, 6 days observation) of the same compound?
A: Its value is 60%.

Q: And the “Survival (%)” value ([8]; Study #3, 75 mg/kg IP QD × 3, 6 days observation)?
A: The value was 20%.

Q: And the “Survival (%)” value ([8]; Study #3, 100 mg/kg IP QD × 3, 6 days observation)?
A: The value was 0%.

Q: And the MIC [9]?
A: The MIC was 4 µg/mL (≈ 17.7 µM).

Q: What about the MIC Bacteroides thetaiotaomicron [2] of the same compound?
A: Its MIC Bacteroides thetaiotaomicron is < 0.125 µg/mL.

Q: What about the MIC Bacteroides fragilis ([3]; first B. fragilis column) of the same compound?
A: Its MIC Bacteroides fragilis is < 0.125 µg/mL.

Q: What about the MIC Bacteroides fragilis ([3]; second B. fragilis column) of the same compound?
A: Its MIC Bacteroides fragilis is < 0.125 µg/mL.

Q: And the MIC Bacteroides fragilis ([3]; third B. fragilis column)?
A: The MIC Bacteroides fragilis was < 0.125 µg/mL.

Q: And the MIC [10]?
A: Its MIC is 8 µg/mL (≈ 35.4 µM).

Q: What about the MIC [11] of the same compound?
A: The MIC was 4 µg/mL (≈ 17.7 µM).

Q: And the Inhibition zones [16]?
A: Its Inhibition zones is 15 mm.

Q: And the MIC [12]?
A: The MIC was 2 µg/mL (≈ 8.84 µM).

Q: And the “Survival (%)” value ([17]; Study #2, 25 mg/kg IP QD × 3, 6 days observation)?
A: Its value is 0%.

Q: And the “Survival (%)” value ([17]; Study #2, 50 mg/kg IP QD × 3, 6 days observation)?
A: Its value is 30%.

Q: And the “Survival (%)” value ([17]; Study #2, 75 mg/kg IP QD × 3, 6 days observation)?
A: The value was 10%.

Q: What about the “Survival (%)” value ([17]; Study #2, 100 mg/kg IP QD × 3, 6 days observation) of the same compound?
A: The value was 0%.

Q: And the Inhibition zones ([18]; Clostridium sp. (first listed strain))?
A: The Inhibition zones was 20 mm.

Q: What about the Inhibition zones ([18]; Clostridium sp. (second listed strain)) of the same compound?
A: The Inhibition zones was 40 mm.

Q: And the MIC [13]?
A: The MIC was 0.25 µg/mL (≈ 1.11 µM).

Q: Which “MIC S cerevisiae MIC7” value [4] does the source give for `O=[N+]([O-])c1ccc(-c2nnc(S(=O)(=O)O)n2Cc2ccccc2)o1` [Compound 128] here?
A: The value was >64 µg/mL.

Q: What about the “MIC M. catarrhalis MIC2” value [5] of the same compound?
A: The value was 16 µg/mL (≈ 45.7 µM).

Q: And the “MIC P aeruginosa MIC2” value [6]?
A: The value was >64 µg/mL.

Q: What about the “MIC S aureus MIC2” value [7] of the same compound?
A: Its value is >64 µg/mL.

Q: What about the “MIC S pneumoniae MIC6” value [9] of the same compound?
A: Its value is 64 µg/mL (≈ 183 µM).

Q: And the “MIC H influenzae MIC4” value [10]?
A: Its value is 64 µg/mL (≈ 183 µM).

Q: And the “MIC E coli MIC2” value [11]?
A: The value was >64 µg/mL.

Q: What about the “MIC E faecalis MIC2” value [12] of the same compound?
A: The value was >64 µg/mL.

Q: What about the “MIC E coli (ImpA) MIC9” value [13] of the same compound?
A: Its value is >64 µg/mL.

Q: `O=[N+]([O-])c1ccc(-c2nnc(S(=O)(=O)O)n2C2CCCCC2)o1` [Compound 131] was tested. Which “MIC S cerevisiae MIC7” value [4] did it give?
A: Its value is >64 µg/mL.

Q: What about the “MIC M. catarrhalis MIC2” value [5] of the same compound?
A: The value was 8 µg/mL (≈ 23.4 µM).

Q: What about the “MIC P aeruginosa MIC2” value [6] of the same compound?
A: The value was >64 µg/mL.

Q: And the “MIC S aureus MIC2” value [7]?
A: Its value is >64 µg/mL.

Q: And the “MIC S pneumoniae MIC6” value [9]?
A: The value was 64 µg/mL (≈ 187 µM).

Q: And the “MIC H influenzae MIC4” value [10]?
A: Its value is 64 µg/mL (≈ 187 µM).

Q: What about the “MIC E coli MIC2” value [11] of the same compound?
A: The value was >64 µg/mL.

Q: And the “MIC E faecalis MIC2” value [12]?
A: The value was >64 µg/mL.

Q: And the “MIC E coli (ImpA) MIC9” value [13]?
A: Its value is >64 µg/mL.
